# “And” between values parts separate entries of the source, which are not always exact repeats. Equal entries are not always repeated.
# Legend:
# [1] = target: T1, Xanthine oxidase (XOD), febuxostat binding domain (Bos taurus, UniProt P80457); assay: Affinity ultrafiltration LC-MS (UF-LC-MS) screening, febuxostat-masked vs unmasked XOD; settings: peak area with vs without febuxostat preincubation of XOD; extract 2 mg/mL
# T1 construct: purchased Sigma-Aldrich Co., Ltd. (St. Louis, MO, USA)
# Protocol: Based on the variation in the chromatogram with and without febuxostat binding in the XOD, the binding degree was used to evaluate the febuxostat competitive capacity of compounds in celery seeds. The binding degree (BD) was calculated as follows: BD(%)=Af−Ano_f/Af×100%
# Af and Ano_f represent the peak area of compounds in the chromatogram with and without preincubation with febuxostat, respectively.
# Identification of potential XOD inhibitors from celery seed extract was performed using UF–LC–MS according to a previous study with modification. To prepare the XOD interaction solution, 250 μL of XOD (0.5 U/mL) was incubated with 50 μL of febuxostat (the XOD inhibitor, 500 μg/mL in 10% DMSO-PBS, masked group) to mask the druggable binding domain of XOD or 10% DMSO-PBS (vehicle control, unmasked group) at 37 °C for 45 min. The extract (50 μL at 2 mg/mL in methanol) was then added to the interaction solution for a further 45 min. After incubation, the mixtures were transferred to a 10 kDa molecule weight cut-off ultrafiltration filter and centrifuged at 14,500 rpm for 20 min. The membrane was washed 3 times with 450 μL ddH2O to remove the unbound molecules. […] The elution solution was then ultrafiltered in the new filter units as described above. The final products in the bottom of the filter units were analyzed using a HPLC–MS system.
# [2] = target: T2, Xanthine oxidase (XOD) (Bos taurus, UniProt P80457); assay: XOD activity assay (absorbance at 290 nm, xanthine substrate); format: biochemical; settings: XOD 0.02 U/mL, xanthine 0.48 mM, 37 °C, OD 290 nm; read-out: IC50 of XOD inhibition
# T2 construct: purchased Sigma-Aldrich Co., Ltd. (St. Louis, MO, USA)
# T2 sequence (P80457 whole entry): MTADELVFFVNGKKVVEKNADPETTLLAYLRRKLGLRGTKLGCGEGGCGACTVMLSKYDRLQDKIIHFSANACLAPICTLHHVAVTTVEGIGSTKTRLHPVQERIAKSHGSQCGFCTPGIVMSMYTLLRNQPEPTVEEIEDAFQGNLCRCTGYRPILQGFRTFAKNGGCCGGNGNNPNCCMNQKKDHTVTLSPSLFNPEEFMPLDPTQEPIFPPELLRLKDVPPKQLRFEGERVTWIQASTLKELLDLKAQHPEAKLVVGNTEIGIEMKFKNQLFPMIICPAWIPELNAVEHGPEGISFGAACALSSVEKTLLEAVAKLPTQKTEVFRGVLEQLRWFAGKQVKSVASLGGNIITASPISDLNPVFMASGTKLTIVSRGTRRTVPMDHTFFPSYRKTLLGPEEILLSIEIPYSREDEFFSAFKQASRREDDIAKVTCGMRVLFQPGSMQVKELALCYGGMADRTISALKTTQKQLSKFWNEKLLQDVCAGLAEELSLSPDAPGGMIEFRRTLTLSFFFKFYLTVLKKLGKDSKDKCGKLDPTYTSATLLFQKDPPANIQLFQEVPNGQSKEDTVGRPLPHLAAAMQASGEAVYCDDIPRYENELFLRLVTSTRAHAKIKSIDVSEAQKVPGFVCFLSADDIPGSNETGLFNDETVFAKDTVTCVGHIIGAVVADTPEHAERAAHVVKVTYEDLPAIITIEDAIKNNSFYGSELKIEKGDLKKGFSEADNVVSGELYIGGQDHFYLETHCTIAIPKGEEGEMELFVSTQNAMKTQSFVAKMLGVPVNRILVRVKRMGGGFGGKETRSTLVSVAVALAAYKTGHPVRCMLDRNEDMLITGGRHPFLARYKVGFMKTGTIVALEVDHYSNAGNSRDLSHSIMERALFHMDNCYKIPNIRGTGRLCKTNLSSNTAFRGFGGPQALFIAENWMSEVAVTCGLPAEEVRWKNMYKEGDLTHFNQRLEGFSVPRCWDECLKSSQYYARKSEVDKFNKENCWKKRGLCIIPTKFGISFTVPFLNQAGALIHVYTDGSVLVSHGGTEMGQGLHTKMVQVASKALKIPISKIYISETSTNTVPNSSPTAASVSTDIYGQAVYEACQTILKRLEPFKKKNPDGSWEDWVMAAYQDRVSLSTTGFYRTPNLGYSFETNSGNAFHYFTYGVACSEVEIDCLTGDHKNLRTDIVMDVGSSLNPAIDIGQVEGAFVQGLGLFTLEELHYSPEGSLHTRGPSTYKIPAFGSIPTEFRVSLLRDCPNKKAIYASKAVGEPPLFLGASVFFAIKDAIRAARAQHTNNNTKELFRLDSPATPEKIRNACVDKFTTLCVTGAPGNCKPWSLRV
# Protocol: The inhibitory effects of compounds were determined in the XOD activity assay according to a previous report with minor modifications. Celery seed extracts or the “hit” compounds from the UF–LC–MS screening assay were dissolved in PBS and prepared for a series of test solutions using 2-fold serial dilutions. Test solutions (50 μL) were mixed with XOD (50 μL at 0.02 U/mL) and incubated at 37 °C for 5 min. This was followed by the addition of XOD substrate xanthine (150 μL at 0.48 mM) and further incubation at 37 °C for 30 min. The optical density (OD) of each tube was then measured at 290 nm. Percent XOD inhibition was calculated using the following formula: %=1−A1−A2/A3−A4×100 where A1 was the absorbance of the production with the sample and XOD, A2 was the absorbance of the production with the sample, A3 was the absorbance of the production with PBS and XOD, and A4 was the absorbance of the production with PBS.
# T1 sequence (P80457 whole entry, the tested form may be a part): as the sequence (P80457 whole entry) above
binding degree (BD) [1] [%],IC50 [2],SMILES
89.1,3140 µM,"O=c1cc(-c2ccc(O)c(O)c2)oc2cc(O[C@@H]3O[C@H](CO)[C@@H](O)[C@H](O)[C@H]3O[C@@H]3OC[C@](O)(CO)[C@H]3O)cc(O)c12 [Compound 9, Luteolin 7-O-apiosylglucoside]"
95.9,976 µM,"O=c1cc(-c2ccc(O)c(O)c2)oc2cc(O[C@@H]3O[C@H](CO)[C@@H](O)[C@H](O)[C@H]3O)cc(O)c12 [Compound 10, Luteolin 7-O-glucoside]"
50.5,–,"CCCC[C@H]1OC(=O)C2=C1CC[C@H](O)[C@H]2O [Compound 11, Senkyunolide J]"
93.6,–,"C[C@@]1(O)CO[C@@H](O[C@H]2[C@H](Oc3cc(O)c4c(=O)cc(-c5ccc(O)c(O)c5)oc4c3)O[C@H](COC(=O)CC(=O)O)[C@@H](O)[C@@H]2O)[C@@H]1O [Compound 14, Luteolin 7-O-malonyl-apiosylglucoside]"
99.0,2020 µM,"O=C(O)CC(=O)OC[C@H]1O[C@@H](Oc2cc(O)c3c(=O)cc(-c4ccc(O)c(O)c4)oc3c2)[C@H](O)[C@@H](O)[C@@H]1O [Compound 15, Luteolin 7-O-6′-malonyl glucoside]"
63.2,–,"O=C(O)CC(=O)OC[C@H]1O[C@@H](Oc2cc(O)c3c(=O)cc(-c4ccc(O)cc4)oc3c2)[C@H](O[C@@H]2OC[C@](O)(CO)[C@H]2O)[C@@H](O)[C@@H]1O [Compound 19, 6″-Malonylapiin]"
97.8,69.2 µM,"O=c1cc(-c2ccc(O)c(O)c2)oc2cc(O)cc(O)c12 [Compound 21, Luteolin]"
95.5,93 µM and 92.6 µM,"O=c1cc(-c2ccc(O)cc2)oc2cc(O)cc(O)c12 [Compound 24, Apigenin]"
96.7,–,"COc1cc(-c2cc(=O)c3c(O)cc(O)cc3o2)ccc1O [Compound 25, Chrysoeriol]"

SMILES,binding degree (BD) [1] [%],IC50 [2]
"COc1cc(-c2cc(=O)c3c(O)cc(OC4OC(COC(=O)CC(=O)O)C(O)C(O)C4OC4OCC(O)(CO)C4O)cc3o2)ccc1O (stereo not drawn) [Compound 20, Chrysoeriol 7-O-6″-malonyl apiosylglucoside]",52.0,–

# Reference: article PMC10458824, “Identification of Xanthine Oxidase Inhibitors from Celery Seeds Using Affinity Ultrafiltration–Liquid Chromatography–Mass Spectrometry” (Molecules, 2023)
